No end group written: not given here.
target: MHC class I allele A*0101 (A1) (Homo sapiens, UniProt P04439, A114D/A174V/A182V/D101N/D185E/E176A/E190D/L180R/Q94H/R68K/S129P/T187R/V100A/V91M/W191G); assay: iScore multi-parametric analysis, A*0101; assay type: binding; details: integrates half-life and ED50
Description: (§1) Finally, multiparametric analysis is performed on the results from these assays and an iScore is generated. The iScore represents a measure of the overall quality of peptide-MHC binding, enabling candidate peptides to be ranked in order of binding quality and allowing rational prioritisation of peptides for functional cellular follow-up studies.
(§2) As part of the validation of the iTopia system, a panel of overlapping peptides derived from the CMV pp 65 protein were used and their binding properties for the A*0201 allele analysed. A number of T cell epitopes restricted by HLA A*0201 had already been identified (by more conventional methodologies) by other researchers for this protein. In the iTopia study, it was reported that an iScore of: >0.5 represented “good quality binding”; between 0.25 and 0.5 represented “medium quality binding”; and <0.25 represented “poor quality binding”. Six of the 20 peptides which gave a “good” iScore (>0.5) for A*0201, represented previously characterised CMV pp 65 A*0201 epitopes.
(§3) Each MHC class I allele has different binding properties and affinities for peptides which they bind. Therefore, information obtained with HLA A*0201 in which peptides are ranked as good, medium or poor binders using >0.5, 0.25-0.5 and <0.25 as thresholds is not necessarily transferable between alleles. Also, different proteins are likely to have distinct immunogenic profiles and the affinities between peptides and MHC class I molecules will be different between proteins. This may be particularly relevant in the case of self-antigens where immunogenicity is likely to be lower than in foreign proteins.
(§4) Multi-parametric analysis permits the integration of half-life and ED50 parameters in an integrated iScore. This reflects the capability of a peptide to reconstitute with MHC molecules in a stable complex, defining its overall level of binding i.e. the iScore value represents the overall quality of peptide-MHC binding and is used to rank candidate peptides as an indicator of functional relevance. The lead candidate epitopes for each allele are selected for cellular functional analysis to confirm their biological relevance.
(§5) The changes in gradient of the graphs in FIGS. 7 to 10 are indicated by a line which delineates the populations of iScores forming the basis of discrimination for further functional studies.

iScore (iTopia), A*0101 | Sequence
0.098 | VPTDLPAYV [Peptide 43]

same assay, conditions: level of binding: >0.5, 0.25-0.5, <0.25

iScore, MHC Class I Molecule A*0101 | Sequence
0 | RLDEVRAGA [Peptide 65]
0 | SLQTSYVFL [Peptide 176]
0 | SLVSLTYVS [Peptide 123]
0 | SNASVSAPS [Peptide 83]
0 | SNHFLYLPR [Peptide 110]
0 | SPLVELILN [Peptide 87]
0 | SPTSSASSF [Peptide 17]
0 | TLAELQGLP [Peptide 139]
0 | TSSASSFSS [Peptide 18]
0 | YEINADPRL [Peptide 202]
0 | YPEKMRNRV [Peptide 163]
0 | YVSFRNLTH [Peptide 126]

Further lines, the sequence ahead of its results:

Sequence | iScore, MHC Class I Molecule A*0101
RDACRDHME [Peptide 195] | 0
RGPAAGDGR [Peptide 4] | 0
RHLDLSNNS [Peptide 119] | 0
RNLTHLESL [Peptide 128] | 0
RSFEGMVVA [Peptide 97] | 0
SASSFSSSA [Peptide 19] | 0
SLRHLDLSN [Peptide 118] | 0
SSAPFLASA [Peptide 22] | 0
SSFSSSAPF [Peptide 20] | 0
SYVFLGIVL [Peptide 178] | 0
TWLKETEVV [Peptide 154] | 0
VFLDNNPWV [Peptide 145] | 0
VFLGIVLAL [Peptide 179, VFLGIVLAL] | 0
VLAQLPSLR [Peptide 115] | 0
VLLELNSAD [Peptide 167] | 0
VLPAGAFAR [Peptide 53] | 0
VLYLNRKGI [Peptide 187] | 0
VPTDLPAYV [Peptide 43] | 0.098
VRAGAFEHL [Peptide 67] | 0
VSLTYVSFR [Peptide 124] | 0
YLNRKGIKK [Peptide 188] | 0

target: MHC class I allele A*0201 (A2) (Homo sapiens, UniProt P04439, D140Y/D185E/D98H/E176V/E277Q/G131W/G231S/I119V/I121R/I166T/I218V/L300P/L318F/N151K/N90K/P208A/P217A/Q86G/Q94H/R138H/R169H/T345S); assay: iScore multi-parametric analysis, A*0201; assay type: binding; details: level of binding: >0.5, 0.25-0.5, <0.25
Description: as §1, §2, §3, §4, §5

iScore, MHC Class I Molecule A*0201 | Sequence
0.422 | RLDEVRAGA [Peptide 65]
0.561 | SLQTSYVFL [Peptide 176]
0.206 | SLVSLTYVS [Peptide 123]
0.154 | SNASVSAPS [Peptide 83]
0.051 | SNHFLYLPR [Peptide 110]
0.094 | SPLVELILN [Peptide 87]
0 | SPTSSASSF [Peptide 17]
0.083 | TLAELQGLP [Peptide 139]
0.037 | TSSASSFSS [Peptide 18]
0.077 | YEINADPRL [Peptide 202]
0 | YPEKMRNRV [Peptide 163]
0 | YVSFRNLTH [Peptide 126]

Second part, the sequence before the results:

Sequence | iScore, MHC Class I Molecule A*0201
RDACRDHME [Peptide 195] | 0.08
RGPAAGDGR [Peptide 4] | 0.032
RHLDLSNNS [Peptide 119] | 0.029
RNLTHLESL [Peptide 128] | 0.072
RSFEGMVVA [Peptide 97] | 0.189
SASSFSSSA [Peptide 19] | 0.045
SLRHLDLSN [Peptide 118] | 0.03
SSAPFLASA [Peptide 22] | 0.389
SSFSSSAPF [Peptide 20] | 0.037
SYVFLGIVL [Peptide 178] | 0.118
TWLKETEVV [Peptide 154] | 0.184
VFLDNNPWV [Peptide 145] | 0.239
VFLGIVLAL [Peptide 179, VFLGIVLAL] | 0.606
VLAQLPSLR [Peptide 115] | 0.113
VLLELNSAD [Peptide 167] | 0.105
VLPAGAFAR [Peptide 53] | 0.081
VLYLNRKGI [Peptide 187] | 0.095
VPTDLPAYV [Peptide 43] | 0.059
VRAGAFEHL [Peptide 67] | 0
VSLTYVSFR [Peptide 124] | 0
YLNRKGIKK [Peptide 188] | 0.118

target: MHC class I allele A*0301 (A3) (Homo sapiens, UniProt P04439); assay: iScore multi-parametric analysis, A*0301; assay type: binding; details: level of binding: >0.5, 0.25-0.5, <0.25
Description: as §1, §2, §3, §4, §5

iScore, MHC Class I Molecule A*0301 | Sequence
0.057 | RLDEVRAGA [Peptide 65]
0 | SLQTSYVFL [Peptide 176]
0 | SLVSLTYVS [Peptide 123]
0 | SNASVSAPS [Peptide 83]
0.084 | SNHFLYLPR [Peptide 110]
0 | SPLVELILN [Peptide 87]
0 | SPTSSASSF [Peptide 17]
0 | TLAELQGLP [Peptide 139]
0 | TSSASSFSS [Peptide 18]
0 | YEINADPRL [Peptide 202]
0 | YPEKMRNRV [Peptide 163]
0.086 | YVSFRNLTH [Peptide 126]

The next lines start with the sequence.

Sequence | iScore, MHC Class I Molecule A*0301
RDACRDHME [Peptide 195] | 0
RGPAAGDGR [Peptide 4] | 0
RHLDLSNNS [Peptide 119] | 0
RNLTHLESL [Peptide 128] | 0
RSFEGMVVA [Peptide 97] | 0
SASSFSSSA [Peptide 19] | 0
SLRHLDLSN [Peptide 118] | 0
SSAPFLASA [Peptide 22] | 0
SSFSSSAPF [Peptide 20] | 0
SYVFLGIVL [Peptide 178] | 0
TWLKETEVV [Peptide 154] | 0
VFLDNNPWV [Peptide 145] | 0
VFLGIVLAL [Peptide 179, VFLGIVLAL] | 0
VLAQLPSLR [Peptide 115] | 0.023
VLLELNSAD [Peptide 167] | 0
VLPAGAFAR [Peptide 53] | 0.027
VLYLNRKGI [Peptide 187] | 0.014
VPTDLPAYV [Peptide 43] | 0
VRAGAFEHL [Peptide 67] | 0
VSLTYVSFR [Peptide 124] | 0.025
YLNRKGIKK [Peptide 188] | 0.065

target: MHC class I allele B*0702 (B7) (Homo sapiens, UniProt P01889); assay: iScore multi-parametric analysis, B*0702; details: level of binding: >0.5, 0.25-0.5, <0.25
Description: as §1
As part of the validation of the iTopia system, a panel of overlapping peptides derived from the CMV pp 65 protein were used and their binding properties for the A*0201 allele analysed. A number of T cell epitopes restricted by HLA A*0201 had already been identified (by more conventional methodologies) by other researchers for this protein. In the iTopia study, it was reported that an iScore of: >0.5 represented “good quality binding”; between 0.25 and 0.5 represented “medium quality binding”; and <0.25 represented “poor quality binding”.
as §4

iScore, MHC Class I Molecule B*0702 | Sequence
0.032 | RLDEVRAGA [Peptide 65]
0 | SLQTSYVFL [Peptide 176]
0 | SLVSLTYVS [Peptide 123]
0 | SNASVSAPS [Peptide 83]
0 | SNHFLYLPR [Peptide 110]
0 | SPLVELILN [Peptide 87]
0.335 | SPTSSASSF [Peptide 17]
0 | TLAELQGLP [Peptide 139]
0 | TSSASSFSS [Peptide 18]
0 | YEINADPRL [Peptide 202]
0.242 | YPEKMRNRV [Peptide 163]
0.21 | YVSFRNLTH [Peptide 126]

Further lines, the sequence ahead of its results:

Sequence | iScore, MHC Class I Molecule B*0702
RDACRDHME [Peptide 195] | 0
RGPAAGDGR [Peptide 4] | 0
RHLDLSNNS [Peptide 119] | 0
RNLTHLESL [Peptide 128] | 0
RSFEGMVVA [Peptide 97] | 0
SASSFSSSA [Peptide 19] | 0
SLRHLDLSN [Peptide 118] | 0
SSAPFLASA [Peptide 22] | 0
SSFSSSAPF [Peptide 20] | 0
SYVFLGIVL [Peptide 178] | 0.045
TWLKETEVV [Peptide 154] | 0
VFLDNNPWV [Peptide 145] | 0
VFLGIVLAL [Peptide 179, VFLGIVLAL] | 0
VLAQLPSLR [Peptide 115] | 0
VLLELNSAD [Peptide 167] | 0
VLPAGAFAR [Peptide 53] | 0
VLYLNRKGI [Peptide 187] | 0.164
VPTDLPAYV [Peptide 43] | 0
VRAGAFEHL [Peptide 67] | 0.085
VSLTYVSFR [Peptide 124] | 0
YLNRKGIKK [Peptide 188] | 0.089

Reference: patent US8147838B2, “Peptide” (priority 2005, dated 2012)
